Legend:
Experiment in all cases: relative viability (nuclei count vs DMSO), 5 days (fraction); higher = more cells survive
[1] = tested on: A-427
How it was run: (§1)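 Relative viability is defined as nuclei in treated wells over nuclei in vehicle wells. Duplicate plates were run and medians reported. Lung cancer cell lines in 1536-well plates were dosed by pin tool one day after seeding, with one drug or with a fixed anchor-drug dose plus five library-drug doses (not always all listed) in √10 steps, and nuclei were counted after 5 days.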

[2] = tested on: HCC-15
How it was run: as §1

[3] = tested on: HCC-78
How it was run: as §1

[4] = tested on: HOP-62
How it was run: as §1

[5] = tested on: LC-2-ad
How it was run: as §1

[6] = tested on: LXF-289
How it was run: as §1

[7] = tested on: NCI-H1734
How it was run: as §1

[8] = tested on: NCI-H1755
How it was run: as §1

[9] = tested on: NCI-H1792
How it was run: as §1

[10] = tested on: NCI-H1915
How it was run: as §1

[11] = tested on: NCI-H1975
How it was run: as §1

[12] = tested on: NCI-H2126
How it was run: as §1

[13] = tested on: NCI-H2228
How it was run: as §1

[14] = tested on: NCI-H2347
How it was run: as §1

[15] = tested on: NCI-H647
How it was run: as §1

[16] = tested on: PC-3 [JPC-3]
How it was run: as §1

[17] = tested on: RERF-LC-KJ
How it was run: as §1

[18] = tested on: SK-LU-1
How it was run: as §1

[19] = tested on: SW 1573
How it was run: as §1

SMILES: COc1nc(C)cnc1NS(=O)(=O)c1cccnc1-c1ccc(-c2nnco2)cc1 [Zibotentan] + CC(C)C[C@H](NC(=O)[C@H](Cc1ccccc1)NC(=O)c1cnccn1)B(O)O [Bortezomib] (partner 0.002 µM)
- relative viability ([1]; first compound 0.08 µM): 1.05
- relative viability ([1]; first compound 0.253 µM): 1.06
- relative viability ([1]; first compound 0.8 µM): 1.02
- relative viability ([1]; first compound 2.53 µM): 1.01
- relative viability ([2]; first compound 0.08 µM): 0.99
- relative viability ([2]; first compound 0.253 µM): 1.01
- relative viability ([2]; first compound 0.8 µM): 0.979
- relative viability ([2]; first compound 2.53 µM): 1.09
- relative viability ([3]; first compound 0.08 µM): 0.473
- relative viability ([3]; first compound 0.253 µM): 0.443
- relative viability ([3]; first compound 0.8 µM): 0.563
- relative viability ([3]; first compound 2.53 µM): 0.485
- relative viability ([4]; first compound 0.08 µM): 0.732
- relative viability ([4]; first compound 0.253 µM): 0.625
- relative viability ([4]; first compound 0.8 µM): 1.08
- relative viability ([4]; first compound 2.53 µM): 0.724
- relative viability ([5]; first compound 0.08 µM): 1.03
- relative viability ([5]; first compound 0.253 µM): 0.932
- relative viability ([5]; first compound 0.8 µM): 0.921
- relative viability ([5]; first compound 2.53 µM): 1.07
- relative viability ([6]; first compound 0.08 µM): 1.05
- relative viability ([6]; first compound 0.253 µM): 0.993
- relative viability ([6]; first compound 0.8 µM): 1.05
- relative viability ([6]; first compound 2.53 µM): 0.989
- relative viability ([7]; first compound 0.08 µM): 1.1
- relative viability ([7]; first compound 0.253 µM): 0.894
- relative viability ([7]; first compound 0.8 µM): 0.972
- relative viability ([7]; first compound 2.53 µM): 1
- relative viability ([8]; first compound 0.08 µM): 0.945
- relative viability ([8]; first compound 0.253 µM): 0.952
- relative viability ([8]; first compound 0.8 µM): 0.968
- relative viability ([8]; first compound 2.53 µM): 0.97
- relative viability ([9]; first compound 0.08 µM): 0.912
- relative viability ([9]; first compound 0.253 µM): 0.833
- relative viability ([9]; first compound 0.8 µM): 0.921
- relative viability ([9]; first compound 2.53 µM): 0.935
- relative viability ([10]; first compound 0.08 µM): 1.1
- relative viability ([10]; first compound 0.253 µM): 0.986
- relative viability ([10]; first compound 0.8 µM): 1.01
- relative viability ([10]; first compound 2.53 µM): 0.965
- relative viability ([11]; first compound 0.08 µM): 0.378
- relative viability ([11]; first compound 0.253 µM): 0.293
- relative viability ([11]; first compound 0.8 µM): 0.411
- relative viability ([11]; first compound 2.53 µM): 0.419
- relative viability ([12]; first compound 0.08 µM): 1.19
- relative viability ([12]; first compound 0.253 µM): 1.15
- relative viability ([12]; first compound 0.8 µM): 1.15
- relative viability ([12]; first compound 2.53 µM): 1.16
- relative viability ([13]; first compound 0.08 µM): 0.801
- relative viability ([13]; first compound 0.253 µM): 0.821
- relative viability ([13]; first compound 0.8 µM): 0.97
- relative viability ([13]; first compound 2.53 µM): 1.07
- relative viability ([14]; first compound 0.08 µM): 1.08
- relative viability ([14]; first compound 0.253 µM): 0.871
- relative viability ([14]; first compound 0.8 µM): 1.04
- relative viability ([14]; first compound 2.53 µM): 0.734
- relative viability ([15]; first compound 0.08 µM): 0.859
- relative viability ([15]; first compound 0.253 µM): 0.818
- relative viability ([15]; first compound 0.8 µM): 0.891
- relative viability ([15]; first compound 2.53 µM): 1.11
- relative viability ([16]; first compound 0.08 µM): 0.906
- relative viability ([16]; first compound 0.253 µM): 0.838
- relative viability ([16]; first compound 0.8 µM): 0.839
- relative viability ([16]; first compound 2.53 µM): 0.807
- relative viability ([17]; first compound 0.08 µM): 1.04
- relative viability ([17]; first compound 0.253 µM): 1.1
- relative viability ([17]; first compound 0.8 µM): 1.09
- relative viability ([17]; first compound 2.53 µM): 0.998
- relative viability ([18]; first compound 0.08 µM): 1.17
- relative viability ([18]; first compound 0.253 µM): 0.988
- relative viability ([18]; first compound 0.8 µM): 1.08
- relative viability ([18]; first compound 2.53 µM): 1.11
- relative viability ([19]; first compound 0.08 µM): 1
- relative viability ([19]; first compound 0.253 µM): 0.847
- relative viability ([19]; first compound 0.8 µM): 1.05
- relative viability ([19]; first compound 2.53 µM): 1.28

SMILES: O=c1cc(N2CCOCC2)oc2c(-c3cccc4c3sc3ccccc34)cccc12 + CC1(C)CCC(c2ccc(Cl)cc2)=C(CN2CCN(c3ccc(C(=O)NS(=O)(=O)c4ccc(N[C@H](CCN5CCOCC5)CSc5ccccc5)c(S(=O)(=O)C(F)(F)F)c4)cc3)CC2)C1 [Navitoclax] (partner 0.5 µM)
- relative viability ([1]; first compound 0.01 µM): 0.937
- relative viability ([1]; first compound 0.03162 µM): 0.935
- relative viability ([1]; first compound 0.1 µM): 0.956
- relative viability ([1]; first compound 0.3162 µM): 0.866
- relative viability ([1]; first compound 1 µM): 0.959
- relative viability ([2]; first compound 0.01 µM): 0.788
- relative viability ([2]; first compound 0.03162 µM): 0.706
- relative viability ([2]; first compound 0.1 µM): 0.69
- relative viability ([2]; first compound 0.3162 µM): 0.691
- relative viability ([2]; first compound 1 µM): 0.667
- relative viability ([3]; first compound 0.01 µM): 0.742
- relative viability ([3]; first compound 0.03162 µM): 0.831
- relative viability ([3]; first compound 0.1 µM): 0.756
- relative viability ([3]; first compound 0.3162 µM): 0.755
- relative viability ([3]; first compound 1 µM): 0.843
- relative viability ([4]; first compound 0.01 µM): 0.935
- relative viability ([4]; first compound 0.03162 µM): 1.08
- relative viability ([4]; first compound 0.1 µM): 1.02
- relative viability ([4]; first compound 0.3162 µM): 0.854
- relative viability ([4]; first compound 1 µM): 1.07
- relative viability ([5]; first compound 0.01 µM): 0.646
- relative viability ([5]; first compound 0.1 µM): 0.543
- relative viability ([5]; first compound 0.3162 µM): 0.546
- relative viability ([5]; first compound 1 µM): 0.386
- relative viability ([6]; first compound 0.01 µM): 0.924
- relative viability ([6]; first compound 0.03162 µM): 0.937
- relative viability ([6]; first compound 0.1 µM): 0.938
- relative viability ([6]; first compound 0.3162 µM): 0.865
- relative viability ([6]; first compound 1 µM): 0.916
- relative viability ([7]; first compound 0.01 µM): 0.921
- relative viability ([7]; first compound 0.03162 µM): 0.807
- relative viability ([7]; first compound 0.1 µM): 0.835
- relative viability ([7]; first compound 0.3162 µM): 0.708
- relative viability ([7]; first compound 1 µM): 0.851
- relative viability ([8]; first compound 0.01 µM): 0.983
- relative viability ([8]; first compound 0.03162 µM): 0.949
- relative viability ([8]; first compound 0.1 µM): 1.02
- relative viability ([8]; first compound 0.3162 µM): 0.972
- relative viability ([8]; first compound 1 µM): 0.999
- relative viability ([9]; first compound 0.01 µM): 0.604
- relative viability ([9]; first compound 0.03162 µM): 0.595
- relative viability ([9]; first compound 0.1 µM): 0.368
- relative viability ([9]; first compound 0.3162 µM): 0.564
- relative viability ([9]; first compound 1 µM): 0.556
- relative viability ([10]; first compound 0.01 µM): 0.792
- relative viability ([10]; first compound 0.03162 µM): 0.788
- relative viability ([10]; first compound 0.1 µM): 0.809
- relative viability ([10]; first compound 0.3162 µM): 0.779
- relative viability ([10]; first compound 1 µM): 0.824
- relative viability ([11]; first compound 0.01 µM): 1.02
- relative viability ([11]; first compound 0.03162 µM): 1.13
- relative viability ([11]; first compound 0.1 µM): 1.1
- relative viability ([11]; first compound 0.3162 µM): 0.985
- relative viability ([11]; first compound 1 µM): 0.994
- relative viability ([12]; first compound 0.01 µM): 0.845
- relative viability ([12]; first compound 0.03162 µM): 0.839
- relative viability ([12]; first compound 0.1 µM): 0.868
- relative viability ([12]; first compound 0.3162 µM): 0.889
- relative viability ([12]; first compound 1 µM): 0.794
- relative viability ([13]; first compound 0.03162 µM): 0.895
- relative viability ([13]; first compound 0.1 µM): 1.16
- relative viability ([13]; first compound 0.3162 µM): 0.897
- relative viability ([13]; first compound 1 µM): 1.19
- relative viability ([14]; first compound 0.01 µM): 1.11
- relative viability ([14]; first compound 0.03162 µM): 0.804
- relative viability ([14]; first compound 0.1 µM): 0.844
- relative viability ([14]; first compound 0.3162 µM): 0.754
- relative viability ([14]; first compound 1 µM): 0.897
- relative viability ([15]; first compound 0.01 µM): 0.985
- relative viability ([15]; first compound 0.3162 µM): 1.06
- relative viability ([15]; first compound 1 µM): 1.1
- relative viability ([16]; first compound 0.01 µM): 0.824
- relative viability ([16]; first compound 0.03162 µM): 0.784
- relative viability ([16]; first compound 0.1 µM): 0.795
- relative viability ([16]; first compound 0.3162 µM): 0.783
- relative viability ([16]; first compound 1 µM): 0.777
- relative viability ([17]; first compound 0.01 µM): 0.926
- relative viability ([17]; first compound 0.03162 µM): 1.2
- relative viability ([17]; first compound 0.1 µM): 0.98
- relative viability ([17]; first compound 0.3162 µM): 0.85
- relative viability ([17]; first compound 1 µM): 0.974
- relative viability ([18]; first compound 0.03162 µM): 0.954
- relative viability ([18]; first compound 0.1 µM): 1.1
- relative viability ([18]; first compound 0.3162 µM): 1.18
- relative viability ([18]; first compound 1 µM): 0.77
- relative viability ([19]; first compound 0.01 µM): 1.04
- relative viability ([19]; first compound 0.03162 µM): 1
- relative viability ([19]; first compound 0.1 µM): 1.15
- relative viability ([19]; first compound 0.3162 µM): 1.06
- relative viability ([19]; first compound 1 µM): 0.832

— the supplement of paper PMC10307832
